Results on three compounds are retold here after BindingDB's records for doi:10.1111/j.1747-0285.2007.00594.x (Pfizer, 2007).

The structures appear in SMILES notation.

Common to all, as to assay: Enzymatic Activity Assay
Common to all, as to conditions: pH 7.5; 22 °C

In experiment [1] the target is Serine/threonine-protein kinase PLK2 (Homo sapiens, UniProt Q9NYY3).
Experiment [2] addresses Serine/threonine-protein kinase PLK3 (Homo sapiens, UniProt Q9H4B4).
The target of experiment [3] is Serine/threonine-protein kinase PLK1 (Homo sapiens, UniProt P53350).
Sequence of Serine/threonine-protein kinase PLK1 (P53350 whole entry): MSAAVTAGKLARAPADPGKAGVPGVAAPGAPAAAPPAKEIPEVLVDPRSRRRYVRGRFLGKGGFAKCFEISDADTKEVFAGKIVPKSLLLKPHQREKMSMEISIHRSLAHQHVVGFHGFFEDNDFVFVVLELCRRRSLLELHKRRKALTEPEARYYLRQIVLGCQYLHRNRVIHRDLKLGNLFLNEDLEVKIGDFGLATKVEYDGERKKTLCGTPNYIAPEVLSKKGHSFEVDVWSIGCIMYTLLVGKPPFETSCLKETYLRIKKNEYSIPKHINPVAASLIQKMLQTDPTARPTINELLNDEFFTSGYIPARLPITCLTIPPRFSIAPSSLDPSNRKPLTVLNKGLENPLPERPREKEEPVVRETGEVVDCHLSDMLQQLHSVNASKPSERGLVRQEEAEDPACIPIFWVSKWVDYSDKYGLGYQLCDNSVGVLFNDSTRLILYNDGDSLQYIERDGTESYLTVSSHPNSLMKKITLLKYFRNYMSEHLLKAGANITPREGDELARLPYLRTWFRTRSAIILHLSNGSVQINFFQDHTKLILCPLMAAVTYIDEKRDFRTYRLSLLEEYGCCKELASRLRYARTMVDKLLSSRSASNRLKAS

Sequence of Serine/threonine-protein kinase PLK3 (Q9H4B4 whole entry): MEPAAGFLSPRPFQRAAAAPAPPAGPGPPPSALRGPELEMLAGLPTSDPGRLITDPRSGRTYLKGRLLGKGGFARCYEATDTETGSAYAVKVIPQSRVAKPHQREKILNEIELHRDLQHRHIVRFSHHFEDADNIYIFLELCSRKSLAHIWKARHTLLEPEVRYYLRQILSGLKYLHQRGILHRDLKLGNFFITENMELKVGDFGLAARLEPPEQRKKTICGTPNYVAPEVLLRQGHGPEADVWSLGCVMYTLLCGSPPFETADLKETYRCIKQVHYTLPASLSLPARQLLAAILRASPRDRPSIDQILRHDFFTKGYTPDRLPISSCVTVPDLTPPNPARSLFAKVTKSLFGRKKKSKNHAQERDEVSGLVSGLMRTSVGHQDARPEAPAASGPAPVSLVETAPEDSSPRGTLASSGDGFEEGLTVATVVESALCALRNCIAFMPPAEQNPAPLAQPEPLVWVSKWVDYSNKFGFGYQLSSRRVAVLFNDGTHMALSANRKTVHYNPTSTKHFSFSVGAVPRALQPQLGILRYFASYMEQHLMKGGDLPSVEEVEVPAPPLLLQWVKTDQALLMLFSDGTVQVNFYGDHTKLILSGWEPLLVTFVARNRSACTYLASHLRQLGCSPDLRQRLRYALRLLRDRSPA
Sequence of Serine/threonine-protein kinase PLK2 (Q9NYY3 whole entry): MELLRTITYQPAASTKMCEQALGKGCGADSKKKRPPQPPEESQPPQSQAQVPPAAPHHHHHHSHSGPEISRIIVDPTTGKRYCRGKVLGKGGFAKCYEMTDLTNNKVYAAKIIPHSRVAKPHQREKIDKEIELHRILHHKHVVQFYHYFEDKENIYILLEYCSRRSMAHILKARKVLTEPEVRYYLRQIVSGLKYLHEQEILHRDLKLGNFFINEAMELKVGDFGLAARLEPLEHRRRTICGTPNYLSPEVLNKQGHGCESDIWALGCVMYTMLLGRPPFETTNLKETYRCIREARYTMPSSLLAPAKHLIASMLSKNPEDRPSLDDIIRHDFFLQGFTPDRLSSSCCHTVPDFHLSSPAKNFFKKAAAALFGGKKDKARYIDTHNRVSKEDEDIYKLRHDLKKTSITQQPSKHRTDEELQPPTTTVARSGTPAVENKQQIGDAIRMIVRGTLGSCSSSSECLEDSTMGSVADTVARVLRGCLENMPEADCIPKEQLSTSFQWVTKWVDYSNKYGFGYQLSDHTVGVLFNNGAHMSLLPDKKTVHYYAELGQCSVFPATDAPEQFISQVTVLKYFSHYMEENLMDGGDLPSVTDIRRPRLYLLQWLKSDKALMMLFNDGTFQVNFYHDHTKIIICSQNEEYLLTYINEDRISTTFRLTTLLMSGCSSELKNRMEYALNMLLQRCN

On to `CC(=O)c1cnc(Nc2ccc(N3CCN(C)CC3)cc2)nc1NC1CCCC1` [1-[4-(cyclopentylamino)-2-{[4-(4-methylpiperazin-1-yl)phenyl]amino}pyrimidin-5-yl]ethan-1-one], for which the IC50 was found to be 367 nM in experiment [1], 3490 nM in experiment [2] and 345 nM in experiment [3].
The matching figures for `CC[C@@H]1C(=O)N(C)c2cnc(Nc3ccc(C(=O)NC4CCN(C)CC4)cc3)nc2N1C1CCCC1` [4-{[(7R)-8-cyclopentyl-7-ethyl-5-methyl-6-oxo-5,6,7,8-tetrahydropteridin-2-yl]amino}-N-(1-methylpiperidin-4-yl)benzamide]: 11.5 nM, 6.7 nM and 5 nM.
As to `COc1cc(N2CCN(C)CC2)ccc1Nc1ncc(C(C)=O)c(NC2CCCC2)n1` [1-[4-(cyclopentylamino)-2-{[2-methoxy-4-(4-methylpiperazin-1-yl)phenyl]amino}pyrimidin-5-yl]ethan-1-one], the IC50 in experiment [1] is over 10000 nM; in experiment [2], 2580 nM; in experiment [3], 145 nM.
